ChEMBL document CHEMBL3112480, “γ-Alkylidene-γ-lactones and isobutylpyrrol-2(5H)-ones analogues to rubrolides as inhibitors of biofilm formation by gram-positive and gram-negative bacteria” (Bioorg Med Chem Lett, 2014)
In brackets after ≈: the same amount, converted by molar mass.

Legend:
Staphylococcus aureus [1] = assay: Antibacterial activity against Staphylococcus aureus ATCC 25923 assessed as effect on planktonic growth at 5.5 ug/ml after 20 hrs relative to control; assay type: functional
Streptococcus mutans [2] = assay: Antibacterial activity against Streptococcus mutans ATCC 25175 assessed as effect on planktonic growth at 10.9 ug/ml after 20 hrs relative to control; assay type: functional
Pseudomonas aeruginosa [3] = assay: Antibacterial activity against Pseudomonas aeruginosa ATCC 27853 assessed as effect on planktonic growth at 1.37 ug/ml after 20 hrs relative to control; assay type: functional
Pseudomonas aeruginosa [4] = assay: Antibacterial activity against Pseudomonas aeruginosa ATCC 27853 assessed as effect on planktonic growth at 5.5 ug/ml after 20 hrs relative to control; assay type: functional
Pseudomonas aeruginosa [5] = assay: Antibacterial activity against Pseudomonas aeruginosa ATCC 27853 assessed as effect on planktonic growth at 10.9 ug/ml after 20 hrs relative to control; assay type: functional
Streptococcus mutans [6] = assay: Antibacterial activity against Streptococcus mutans ATCC 25175 assessed as effect on planktonic growth at 5.5 ug/ml after 20 hrs relative to control; assay type: functional
[7] = system: Staphylococcus epidermidis; assay: Antibacterial activity against Staphylococcus epidermidis ATCC 35547 assessed as effect on planktonic growth at 1.37 ug/ml after 20 hrs relative to control; assay type: functional
Streptococcus mutans [8] = assay: Antibacterial activity against Streptococcus mutans ATCC 25175 assessed as effect on planktonic growth at 0.68 ug/ml after 20 hrs relative to control; assay type: functional
Pseudomonas aeruginosa [9] = assay: Antibacterial activity against Pseudomonas aeruginosa ATCC 27853 assessed as inhibition of biofilm formation after 20 hrs by crystal-violet staining method; assay type: functional, organism-based; settings: for IC50: ATCC 27853, 20 h
[10] = system: Staphylococcus epidermidis; assay: Antibacterial activity against Staphylococcus epidermidis ATCC 35547 assessed as effect on planktonic growth at 43.8 ug/ml after 20 hrs relative to control; assay type: functional
Staphylococcus aureus [11] = assay: Antibacterial activity against Staphylococcus aureus ATCC 25923 assessed as effect on planktonic growth at 43.8 ug/ml after 20 hrs relative to control; assay type: functional
Pseudomonas aeruginosa [12] = assay: Antibacterial activity against Pseudomonas aeruginosa ATCC 27853 assessed as effect on planktonic growth at 0.68 ug/ml after 20 hrs relative to control; assay type: functional
Staphylococcus aureus [13] = assay: Antibacterial activity against Staphylococcus aureus ATCC 25923 assessed as effect on planktonic growth at 10.9 ug/ml after 20 hrs relative to control; assay type: functional
[14] = system: Staphylococcus epidermidis; assay: Antibacterial activity against Staphylococcus epidermidis ATCC 35547 assessed as effect on planktonic growth at 0.34 ug/ml after 20 hrs relative to control; assay type: functional
[15] = system: Staphylococcus epidermidis; assay: Antibacterial activity against Staphylococcus epidermidis ATCC 35547 assessed as effect on planktonic growth at 2.73 ug/ml after 20 hrs relative to control; assay type: functional
[16] = system: Staphylococcus epidermidis; assay: Antibacterial activity against Staphylococcus epidermidis ATCC 35547 assessed as effect on planktonic growth at 10.9 ug/ml after 20 hrs relative to control; assay type: functional
[17] = system: Staphylococcus epidermidis; assay: Antibacterial activity against Staphylococcus epidermidis ATCC 35547 assessed as effect on planktonic growth at 5.5 ug/ml after 20 hrs relative to control; assay type: functional
Staphylococcus aureus [18] = assay: Antibacterial activity against Staphylococcus aureus ATCC 25923 assessed as effect on planktonic growth at 0.68 ug/ml after 20 hrs relative to control; assay type: functional
Streptococcus mutans [19] = assay: Antibacterial activity against Streptococcus mutans ATCC 25175 assessed as effect on planktonic growth at 2.73 ug/ml after 20 hrs relative to control; assay type: functional
[20] = system: Staphylococcus epidermidis; assay: Antibacterial activity against Staphylococcus epidermidis ATCC 35547 assessed as effect on planktonic growth at 21.9 ug/ml after 20 hrs relative to control; assay type: functional
Pseudomonas aeruginosa [21] = assay: Antibacterial activity against Pseudomonas aeruginosa ATCC 27853 assessed as effect on planktonic growth at 2.73 ug/ml after 20 hrs relative to control; assay type: functional
Pseudomonas aeruginosa [22] = assay: Antibacterial activity against Pseudomonas aeruginosa ATCC 27853 assessed as effect on planktonic growth at 87.5 ug/ml after 20 hrs relative to control; assay type: functional
Streptococcus mutans [23] = assay: Antibacterial activity against Streptococcus mutans ATCC 25175 assessed as effect on planktonic growth at 87.5 ug/ml after 20 hrs relative to control; assay type: functional
Streptococcus mutans [24] = assay: Antibacterial activity against Streptococcus mutans ATCC 25175 assessed as effect on planktonic growth at 0.34 ug/ml after 20 hrs relative to control; assay type: functional
Staphylococcus aureus [25] = assay: Antibacterial activity against Staphylococcus aureus ATCC 25923 assessed as effect on planktonic growth at 87.5 ug/ml after 20 hrs relative to control; assay type: functional
Streptococcus mutans [26] = assay: Antibacterial activity against Streptococcus mutans ATCC 25175 assessed as effect on planktonic growth at 0.17 ug/ml after 20 hrs relative to control; assay type: functional
Pseudomonas aeruginosa [27] = assay: Antibacterial activity against Pseudomonas aeruginosa ATCC 27853 assessed as effect on planktonic growth at 0.34 ug/ml after 20 hrs relative to control; assay type: functional
[28] = system: Staphylococcus epidermidis; assay: Antibacterial activity against Staphylococcus epidermidis ATCC 35547 assessed as inhibition of biofilm formation after 20 hrs by crystal-violet staining method; assay type: functional, organism-based; settings: for IC50: ATCC 35547, 20 h
[29] = system: Staphylococcus epidermidis; assay: Antibacterial activity against Staphylococcus epidermidis ATCC 35547 assessed as effect on planktonic growth at 87.5 ug/ml after 20 hrs relative to control; assay type: functional
Pseudomonas aeruginosa [30] = assay: Antibacterial activity against Pseudomonas aeruginosa ATCC 27853 assessed as effect on planktonic growth at 0.17 ug/ml after 20 hrs relative to control; assay type: functional
Staphylococcus aureus [31] = assay: Antibacterial activity against Staphylococcus aureus ATCC 25923 assessed as effect on planktonic growth at 2.73 ug/ml after 20 hrs relative to control; assay type: functional
Staphylococcus aureus [32] = assay: Antibacterial activity against Staphylococcus aureus ATCC 25923 assessed as effect on planktonic growth at 0.34 ug/ml after 20 hrs relative to control; assay type: functional
Streptococcus mutans [33] = assay: Antibacterial activity against Streptococcus mutans ATCC 25175 assessed as effect on planktonic growth at 43.8 ug/ml after 20 hrs relative to control; assay type: functional
Streptococcus mutans [34] = assay: Antibacterial activity against Streptococcus mutans ATCC 25175 assessed as effect on planktonic growth at 21.9 ug/ml after 20 hrs relative to control; assay type: functional
Staphylococcus aureus [35] = assay: Antibacterial activity against Staphylococcus aureus ATCC 25923 assessed as effect on planktonic growth at 1.37 ug/ml after 20 hrs relative to control; assay type: functional
Staphylococcus aureus [36] = assay: Antibacterial activity against Staphylococcus aureus ATCC 25923 assessed as effect on planktonic growth at 0.17 ug/ml after 20 hrs relative to control; assay type: functional
[37] = system: Staphylococcus epidermidis; assay: Antibacterial activity against Staphylococcus epidermidis ATCC 35547 assessed as effect on planktonic growth at 0.17 ug/ml after 20 hrs relative to control; assay type: functional
[38] = system: Staphylococcus epidermidis; assay: Antibacterial activity against Staphylococcus epidermidis ATCC 35547 assessed as effect on planktonic growth at 0.68 ug/ml after 20 hrs relative to control; assay type: functional
Pseudomonas aeruginosa [39] = assay: Antibacterial activity against Pseudomonas aeruginosa ATCC 27853 assessed as effect on planktonic growth at 21.9 ug/ml after 20 hrs relative to control; assay type: functional
Staphylococcus aureus [40] = assay: Antibacterial activity against Staphylococcus aureus ATCC 25923 assessed as effect on planktonic growth at 21.9 ug/ml after 20 hrs relative to control; assay type: functional
Pseudomonas aeruginosa [41] = assay: Antibacterial activity against Pseudomonas aeruginosa ATCC 27853 assessed as effect on planktonic growth at 43.8 ug/ml after 20 hrs relative to control; assay type: functional
Streptococcus mutans [42] = assay: Antibacterial activity against Streptococcus mutans ATCC 25175 assessed as effect on planktonic growth at 1.37 ug/ml after 20 hrs relative to control; assay type: functional

Molecule `COc1ccc(Br)cc1C1=C(Br)C(=O)N(CC(C)C)/C1=C/c1cccc(Cl)c1` has an Activity (Staphylococcus aureus [1]) of -16%, an Activity (Streptococcus mutans [2]) of 8.3% and an Activity (Pseudomonas aeruginosa [3]) of 5%. It also gave an Activity (Pseudomonas aeruginosa [4]) of -4%, an Activity (Pseudomonas aeruginosa [5]) of -7% and an Activity (Streptococcus mutans [6]) of 2.8%. The Activity [7] was 1%, the Activity (Streptococcus mutans [8]) was -6.5% and the inhibition (Pseudomonas aeruginosa [9]) was “Dose-dependent effect”. For the same molecule, the IC50 (Pseudomonas aeruginosa [9]) was > 87.5 µg/mL, the Activity [10] was 56.1% and the Activity (Staphylococcus aureus [11]) was -5.2%. The Activity (Pseudomonas aeruginosa [12]) was 3.4%, the Activity (Staphylococcus aureus [13]) was -11.9% and the Activity [14] was 4.9%. For the same molecule, the Activity [15] was 11.4%, the Activity [16] was 10.8% and the Activity [17] was 21.1%. It also gave an Activity (Staphylococcus aureus [18]) of -19.6%, an Activity (Streptococcus mutans [19]) of 12.6% and an Activity [20] of 27.7%. For the same molecule, the Activity (Pseudomonas aeruginosa [21]) was 4.7%, the Activity (Pseudomonas aeruginosa [22]) was 15.5% and the Activity (Streptococcus mutans [23]) was -7.3%. For the same molecule, the Activity (Streptococcus mutans [24]) was 7%, the Activity (Staphylococcus aureus [25]) was 12.8% and the Activity (Streptococcus mutans [26]) was 6%. The Activity (Pseudomonas aeruginosa [27]) was -3.3%, the inhibition [28] was “Dose-dependent effect” and the IC50 [28] was 46.7 µg/mL (≈ 88.8 µM). For the same molecule, the Activity [29] was 70.2%, the Activity (Pseudomonas aeruginosa [30]) was 1.8% and the Activity (Staphylococcus aureus [31]) was -14%. It also gave an Activity (Staphylococcus aureus [32]) of -17.1%, an Activity (Streptococcus mutans [33]) of 2.5% and an Activity (Streptococcus mutans [34]) of -7.5%. For the same molecule, the Activity (Staphylococcus aureus [35]) was -17.8%, the Activity (Staphylococcus aureus [36]) was -18.7% and the Activity [37] was 2.1%. The Activity [38] was 4.8%, the Activity (Pseudomonas aeruginosa [39]) was -4.5% and the Activity (Staphylococcus aureus [40]) was -13.1%. It also gave an Activity (Pseudomonas aeruginosa [41]) of -3.2% and an Activity (Streptococcus mutans [42]) of 15.3%.
`COc1ccc(Cl)cc1C1=C(Br)C(=O)O/C1=C\c1ccccc1Br` gave an Activity (Staphylococcus aureus [1]) of -16.7%, an Activity (Streptococcus mutans [2]) of 8.2% and an Activity (Pseudomonas aeruginosa [3]) of -7%. For the same molecule, the Activity (Pseudomonas aeruginosa [4]) was -8.1%, the Activity (Pseudomonas aeruginosa [5]) was -5.2% and the Activity (Streptococcus mutans [6]) was 8.6%. The Activity [7] was 2.5%, the Activity (Streptococcus mutans [8]) was 5.6% and the inhibition (Pseudomonas aeruginosa [9]) was “Dose-dependent effect”. The IC50 (Pseudomonas aeruginosa [9]) was 3.9 µg/mL (≈ 8.29 µM), the Activity [10] was 42.5% and the Activity (Staphylococcus aureus [11]) was -2.9%. The Activity (Pseudomonas aeruginosa [12]) was -5.1%, the Activity (Staphylococcus aureus [13]) was -16.9% and the Activity [14] was 51.8%. The Activity [15] was 2.9%, the Activity [16] was 12.1% and the Activity [17] was 3.9%. For the same molecule, the Activity (Staphylococcus aureus [18]) was -10.6%, the Activity (Streptococcus mutans [19]) was 4.1% and the Activity [20] was 27.3%. The Activity (Pseudomonas aeruginosa [21]) was -7.7%, the Activity (Pseudomonas aeruginosa [22]) was -8.2% and the Activity (Streptococcus mutans [23]) was 57.5%. The Activity (Streptococcus mutans [24]) was 5.6%, the Activity (Staphylococcus aureus [25]) was 14.6% and the Activity (Streptococcus mutans [26]) was 19%. For the same molecule, the Activity (Pseudomonas aeruginosa [27]) was -5.3%, the inhibition [28] was “Dose-dependent effect” and the IC50 [28] was 48 µg/mL (≈ 102 µM). The Activity [29] was 74.6%, the Activity (Pseudomonas aeruginosa [30]) was -3.8% and the Activity (Staphylococcus aureus [31]) was -14.4%. For the same molecule, the Activity (Staphylococcus aureus [32]) was -10%, the Activity (Streptococcus mutans [33]) was 26.9% and the Activity (Streptococcus mutans [34]) was 22.8%. It also gave an Activity (Staphylococcus aureus [35]) of -14%, an Activity (Staphylococcus aureus [36]) of -7.9% and an Activity [37] of 9.5%. It also gave an Activity [38] of 11.1%, an Activity (Pseudomonas aeruginosa [39]) of -13.4% and an Activity (Staphylococcus aureus [40]) of -8.3%. The Activity (Pseudomonas aeruginosa [41]) was -9.1% and the Activity (Streptococcus mutans [42]) was 4.5%.
